Source: US7358239B2, “Pyrrolidinyl, piperidinyl or homopiperidinyl substituted (benzodioxan, benzofuran or benzopyran) derivatives” (Janssen Pharmaceutica, N.V., priority 1999, dated 2008)

Tested on: fundus of the stomach (gastric tone)
Assay: Gastric tone measured by an electronic barostat in conscious dogs
Format: in vivo
Details: mean maximal change in gastric volume on relaxation of the fundus; S.C. administration, 0.63 mg/kg; 1 hour observation period; constant pressure 6 mmHg; conscious female beagle dogs
Method: C.1. Gastric Tone Measured by an Electronic Barostat in Conscious Dogs Gastric tone cannot be measured by manometric methods. Therefore an electronic barostat was used. This allows the study of the physiological pattern and regulation of gastric tone in conscious dogs and the influence of test-compounds on this tone. The barostat consists of an air injection system which is connected by a double-lumen 14-French polyvinyl tube to an ultrathin flaccid polyethylene bag (maximal volume: ±700 ml). Variations in gastric tone were measured by recording changes in the volume of air within an intragastric bag, maintained at a constant pressure. The barostat maintains a constant pressure (preselected) within a flaccid air-filled bag introduced into the stomach, changing the volume of air within, the bag by an electronic feedback system. Thus, the barostat measures gastric motor activity (contraction or relaxation) as changes in intragastric volume (decrease or increase resp.) at a constant intragastric pressure. The barostat consists of a strain gauge linked by an electronic relay to an air injection-aspiration system. Both the strain gauge and the injection system are connected by means of double-lumen polyvinyl tube to an ultrathin polyethylene bag. […] Test compounds were screened, i.e. changes in gastric volume were measured, usually at 0.63 mg/kg. […]

Substance: [1(R),[B-(3α,4α)]]-1-[1-[(3,4-dihydro-2H-1-benzopyran-2-yl)methyl]-3-methoxy-4-piperidinyl]-2(1H)pyrimidinone [Co. No. 2]
- Maximum change in volume: 9 mL
